Converted amounts (≈) assume the structure as drawn.
Assays:
Type in all cases: functional
HeLa = test: Cytotoxicity against human HeLa cells by MTT assay; conditions: read-out: ED50 (the source's name)
KB = test: Cytotoxicity against human KB cells by MTT assay; conditions: read-out: ED50 (the source's name)
[1] = Cytotoxicity against human Medulloblastoma cells by MTT assay; conditions: Medulloblastoma cell, read-out: ED50 (the source's name)
[2] = Cytotoxicity against human HEPA 59T/VGH cells by MTT assay; conditions: read-out: ED50 (the source's name)
NCI-H661 = test: Cytotoxicity against human NCI-H661 cells by MTT assay; conditions: read-out: ED50 (the source's name)
DLD-1 = test: Cytotoxicity against human DLD1 cells by MTT assay; conditions: read-out: ED50 (the source's name)

## COc1cccc2c1C(=O)c1c(O)c3c(c(O)c1C2=O)C[C@@](O)(C(=O)CO)C[C@@H]3O[C@H]1C[C@H](N)[C@H](O)[C@H](C)O1 [DOXORUBICIN]
HeLa
  EC50: 0.22 µg/mL (≈ 0.405 µM)
KB
  EC50: 0.25 µg/mL (≈ 0.46 µM)
[1]
  EC50: 0.41 µg/mL (≈ 0.754 µM)
[2]
  EC50: 0.47 µg/mL (≈ 0.865 µM)
NCI-H661
  EC50: 0.29 µg/mL (≈ 0.534 µM)
DLD-1
  EC50: 0.57 µg/mL (≈ 1.05 µM)
